Laboratory results from patent US12376590B2, “Compositions comprising pyridine carboxylate herbicides and azole carboxylate safeners” (Corteva Agriscience LLC, priority 2018, dated 2025).

Experiments:
Test in all cases: Greenhouse postemergence herbicidal safening trial, visual injury after 20-22 d
Details in all cases: applied alone
giant foxtail (SETFA) = assay type: in vivo, Setaria faberi
From the text: (§1) Greenhouse Trial Methodology—Evaluation of Postemergence Herbicidal Safening in Crops
(§2) Seeds of the desired test plant species were planted in a 90:10% v/v (volume/volume) mixture of PRO-MIX® BX (Premier Tech Horticulture, Quakertown, PA, USA) and PROFILE® GREENS GRADE™ (Profile Products LLC, Buffalo Grove, IL, USA) planting mixture, which typically has a pH of 5.2 to 6.2 and an organic matter content of at least 50 percent, in plastic pots with a surface area of 103.2 square centimeters (cm^2). When required to ensure good germination and healthy plants, a fungicide treatment and/or other chemical or physical treatment was applied. The plants were grown for 7-36 days (d) in a greenhouse with an approximate 14-hour (h) photo-period which was maintained at about 23° C. during the day and 22° C. during the night. Nutrients and water were added on a regular basis and supplemental lighting was provided with overhead metal halide 1000-Watt lamps as necessary. The plants were employed for testing when they reached the second or third true leaf stage.
(§3) Emulsifiable concentrates of each of each pyridine carboxylate herbicide (Compound A or Compound B) were prepared at 100 grams acid equivalent per liter (g ae/L). An aliquot of each emulsifiable concentrate was placed in a 25 mL glass vial and diluted with an aqueous mixture of 1.25% (v/v) ACTIROB® B esterified rapeseed oil (Bayer Crop Science, Research Triangle Park, NC, USA) or MSO® Concentrate with LECI-TECH® methylated soybean oil (Loveland Products, Loveland, CO, USA) to obtain concentrated stock solutions at the highest application rate for each herbicide, based upon a 12 milliliter (mL) application volume at a rate of 187 liters per hectare (L/ha). The concentrated stock solutions were further diluted with an aqueous mixture of 1.25% v/v ACTIROB® B or MSO® Concentrate with LECI-TECH® to obtain stock solutions at reduced application rates for each herbicide. Spray solutions of the herbicide combinations (Compound A or Compound B plus safener) were prepared by adding weighed amounts or aliquots of the azole carboxylate safener to the stock solutions of Compound A or Compound B to form 12-mL spray solutions in two-way combinations.
(§4) The spray solutions were applied to the plant material with an overhead Mandel track sprayer equipped with 8002E nozzles calibrated to deliver 187 L/ha over an application area of 0.503 square meters (m^2) at a spray height of 18 inches (43 centimeters (cm)) above the average plant canopy. Control plants were sprayed in the same manner with the solvent blank. All herbicide (component a) application rates are given as “g ae/ha” and all safener (component b) application rates are given as “g ai/ha.”
(§5) The treated plants and control plants were placed in a greenhouse as described above and watered by sub-irrigation to prevent wash-off of the test compounds. After 20-22 d, the condition of the test plants as compared with that of the control plants was determined visually and scored on a scale of 0 to 100 percent where 0 corresponds to no injury and 100 corresponds to complete kill.

wild oat (AVEFA) = assay type: in vivo, Avena fatua
From the text: as §1, §2, §3, §4, §5

maize (ZEAMX) = assay type: in vivo, Zea mays
From the text: as §1, §2, §3, §4, §5

common sunflower (HELAN) = assay type: in vivo, Helianthus annuus
From the text: as §1, §2, §3, §4, §5

wild pansy (VIOTR) = assay type: in vivo, Viola tricolor
From the text: as §1, §2, §3, §4, §5

winter wheat (TRZAW) = assay type: in vivo, Triticum aestivum
From the text: as §1, §2, §3, §4, §5

[1] = system: ivyleaf morningglory (IPOHE); assay type: in vivo, Ipomoea hederacea
From the text: as §1, §2, §3, §4, §5

large crabgrass (DIGSA) = assay type: in vivo, Digitaria sanguinalis
From the text: as §1, §2, §3, §4, §5

Canada thistle (CIRAR) = assay type: in vivo, Cirsium arvense
From the text: as §1, §2, §3, §4, §5

nutsedge (CYPES) = assay type: in vivo, Cyperus esculentus
From the text: as §1, §2, §3, §4, §5

Canada horseweed (ERICA) = assay type: in vivo, Erigeron canadensis
From the text: as §1, §2, §3, §4, §5

blackgrass (ALOMY) = assay type: in vivo, Alopecurus myosuroides
From the text: as §1, §2, §3, §4, §5

[2] = system: common lambsquarters (CHEAL); assay type: in vivo, Chenopodium album L.
From the text: as §1, §2, §3, §4, §5

wild buckwheat (POLCO) = assay type: in vivo, Polygonum convolvulus
From the text: as §1, §2, §3, §4, §5

Italian ryegrass (LOLMU) = assay type: in vivo, Lolium multiflorum
From the text: as §1, §2, §3, §4, §5

[3] = system: Chinese sprangletop (LEFCH); assay type: in vivo, Leptochloa chinensis
From the text: as §1, §2, §3, §4, §5

kochia (KCHSC) = assay type: in vivo, Kochia scoparia
From the text: as §1, §2, §3, §4, §5

[4] = system: herbicide-resistant kochia (KCHSC-R); assay type: in vivo, Kochia scoparia
From the text: as §1, §2, §3, §4, §5

pigweed (AMARE) = assay type: in vivo, Amaranthus retroflexus
From the text: as §1, §2, §3, §4, §5

velvetleaf (ABUTH) = assay type: in vivo, Abutilon theophrasti
From the text: as §1, §2, §3, §4, §5

barnyardgrass (ECHCG) = assay type: in vivo, Echinochloa crus-galli
From the text: as §1, §2, §3, §4, §5

common rice (ORYSA) = assay type: in vivo, Oryza sativa
From the text: as §1, §2, §3, §4, §5

soybean (GLXMA) = assay type: in vivo, Glycine max
From the text: as §1, §2, §3, §4, §5

Johnson grass (SORHA) = assay type: in vivo, Sorghum halepense
From the text: as §1, §2, §3, §4, §5

winter rape (BRSNW) = assay type: in vivo, Brassica napus
From the text: as §1, §2, §3, §4, §5

spring barley (HORVS) = assay type: in vivo, Hordeum vulgare
From the text: as §1, §2, §3, §4, §5

spring wheat (TRZAS) = assay type: in vivo, Triticum aestivum
From the text: as §1, §2, §3, §4, §5

wild chamomile (MATCH) = assay type: in vivo, Matricaria chamomilla
From the text: as §1, §2, §3, §4, §5

Russian thistle (SASKR) = assay type: in vivo, Salsola kali
From the text: as §1, §2, §3, §4, §5

Measured: % visual injury Ob

O=C(O)c1nc(C(Cl)(Cl)Cl)n(-c2ccc(Cl)cc2Cl)n1 [Fenchlorazole, fenchlorazole]
0%: giant foxtail (SETFA); 20 g/ha | giant foxtail (SETFA); 40 g/ha | giant foxtail (SETFA); 80 g/ha | wild oat (AVEFA); 20 g/ha | wild oat (AVEFA); 40 g/ha | wild oat (AVEFA); 80 g/ha | maize (ZEAMX); 20 g/ha | maize (ZEAMX); 40 g/ha | maize (ZEAMX); 80 g/ha | common sunflower (HELAN); 20 g/ha | common sunflower (HELAN); 40 g/ha | common sunflower (HELAN); 80 g/ha | wild pansy (VIOTR); 20 g/ha | wild pansy (VIOTR); 40 g/ha | wild pansy (VIOTR); 80 g/ha | winter wheat (TRZAW); 20 g/ha | winter wheat (TRZAW); 40 g/ha | winter wheat (TRZAW); 80 g/ha | [1]; 20 g/ha | [1]; 40 g/ha | [1]; 80 g/ha | large crabgrass (DIGSA); 20 g/ha | large crabgrass (DIGSA); 40 g/ha | large crabgrass (DIGSA); 80 g/ha | Canada thistle (CIRAR); 20 g/ha | Canada thistle (CIRAR); 40 g/ha | Canada thistle (CIRAR); 80 g/ha | nutsedge (CYPES); 20 g/ha | nutsedge (CYPES); 40 g/ha | nutsedge (CYPES); 80 g/ha | Canada horseweed (ERICA); 20 g/ha | Canada horseweed (ERICA); 40 g/ha | Canada horseweed (ERICA); 80 g/ha | blackgrass (ALOMY); 20 g/ha | blackgrass (ALOMY); 40 g/ha | blackgrass (ALOMY); 80 g/ha | [2]; 20 g/ha | [2]; 40 g/ha | [2]; 80 g/ha | wild buckwheat (POLCO); 20 g/ha | wild buckwheat (POLCO); 40 g/ha | wild buckwheat (POLCO); 80 g/ha | Italian ryegrass (LOLMU); 20 g/ha | Italian ryegrass (LOLMU); 40 g/ha | Italian ryegrass (LOLMU); 80 g/ha | [3]; 20 g/ha | [3]; 40 g/ha | [3]; 80 g/ha | kochia (KCHSC); 20 g/ha | kochia (KCHSC); 40 g/ha | kochia (KCHSC); 80 g/ha | [4]; 20 g/ha | [4]; 40 g/ha | [4]; 80 g/ha | pigweed (AMARE); 20 g/ha | pigweed (AMARE); 40 g/ha | pigweed (AMARE); 80 g/ha | velvetleaf (ABUTH); 20 g/ha | velvetleaf (ABUTH); 40 g/ha | velvetleaf (ABUTH); 80 g/ha | barnyardgrass (ECHCG); 20 g/ha | barnyardgrass (ECHCG); 40 g/ha | barnyardgrass (ECHCG); 80 g/ha | common rice (ORYSA); 20 g/ha | common rice (ORYSA); 40 g/ha | common rice (ORYSA); 80 g/ha | soybean (GLXMA); 20 g/ha | soybean (GLXMA); 40 g/ha | soybean (GLXMA); 80 g/ha | Johnson grass (SORHA); 20 g/ha | Johnson grass (SORHA); 40 g/ha | Johnson grass (SORHA); 80 g/ha | winter rape (BRSNW); 20 g/ha | winter rape (BRSNW); 40 g/ha | winter rape (BRSNW); 80 g/ha

CCOC(=O)c1nc(C(Cl)(Cl)Cl)n(-c2ccc(Cl)cc2Cl)n1 [Fenchlorazole-ethyl, fenchlorazole-ethyl]
0%: spring barley (HORVS); 10 g/ha | spring barley (HORVS); 20 g/ha | spring barley (HORVS); 40 g/ha | spring wheat (TRZAS); 10 g/ha | spring wheat (TRZAS); 20 g/ha | spring wheat (TRZAS); 40 g/ha | wild chamomile (MATCH); 10 g/ha | wild chamomile (MATCH); 20 g/ha | wild chamomile (MATCH); 40 g/ha | winter rape (BRSNW); 10 g/ha | winter rape (BRSNW); 20 g/ha | winter rape (BRSNW); 40 g/ha | Russian thistle (SASKR); 10 g/ha | Russian thistle (SASKR); 20 g/ha | Russian thistle (SASKR); 40 g/ha
